Laboratory results from patent publication US11459339B2, “Biaryl derivative, preparation method thereof and pharmaceutical application thereof” (Abbisko Therapeutics Co., Ltd., priority 2018, dated 2022).

Legend:
[1] = target: interaction between PD-1 and PD-L1 (Homo sapiens (Human), UniProt Q9NZQ7); assay: PD1-PDL1 HTRF binding activity test (Cisbio PD-1/PD-L1 binding assay kit); settings: read-out: PD1-PDL1 HTRF Binding Activity IC50
[2] = Pharmacokinetic assay in mice, per oral administration; format: in vivo; settings: ICR mice
Source text: C. Pharmacokinetic Assay in Mice
The purpose of this study was to study the pharmacokinetic behaviors of some compounds of the present invention, and administration routes were: per oral administration (PO) to ICR mice:
The compounds used in this test came from the compounds of the specific examples of the present invention.
ICR mice male N=3 original source: Shanghai Sippr-BK Laboratory Animal Co. Ltd.
2.3 Preparation and Administration of Medicaments
The compounds were weighed, and dissolved in solvent of 0.5% SDS+0.5% CMCNa. The mixture solutions were mixed well by shaking and ultrasonic treatment to obtain colorless clear solutions. The solutions were orally administered to nine mice after an overnight fast. The dosage of administration was 10 mg/kg (or 30 mg/kg).
With about 90 μL/time point, blood was drawn from the submaxillary vein, and heparin sodium was added for anticoagulation. The blood samples were placed onto the ice, and were centrifuged (centrifugation conditions: 8000 r/min, 6 min, 2-8° C.) within 1 hr to obtain plasmas. The time points for blood sampling were at 0 hr, 0.25 hr, 0.5 hr, 1 hr, 2 hrs, 4 hrs, 6 hrs, 8 hrs and 24 hrs after administration. The samples were stored in a refrigerator at −20° C.
40 μL of plasma sample was added to 160 μL of cold acetonitrile containing an internal standard, and the mixture solution was vortexed for 3 min and centrifuged at 11,000 r/min for 5 min. 100 μL of supernate was taken and added to 100 μL of water, and 5 μL of the sample was taken and analyzed by LC/MS/MS. Only the original compounds were analyzed for examples 1, 3, 5, 8, 46 and 141 (for results, see table 2); and both the original compounds and possible products of ester hydrolysis, namely example 2, 27, 65 and 105, were analyzed for examples 4, 26, 64 and 104 (for results, see table 3).

[3] = target: interaction between PD-1 and PD-L1 expressed on cell surfaces (Homo sapiens (Human), UniProt Q9NZQ7); assay: Jurkat reporter gene cellular assay (Jurkat/NF-κB-luc/PD1 cells cocultured with Raji-PD-L1 cells, OKT-3 stimulation); format: cell-based; settings: NF-κB-luc reporter activation fold, 6 hrs; read-out: Cell Activity EC50
Chain of interaction between PD-1 and PD-L1 expressed on cell surfaces (Q9NZQ7 19-290): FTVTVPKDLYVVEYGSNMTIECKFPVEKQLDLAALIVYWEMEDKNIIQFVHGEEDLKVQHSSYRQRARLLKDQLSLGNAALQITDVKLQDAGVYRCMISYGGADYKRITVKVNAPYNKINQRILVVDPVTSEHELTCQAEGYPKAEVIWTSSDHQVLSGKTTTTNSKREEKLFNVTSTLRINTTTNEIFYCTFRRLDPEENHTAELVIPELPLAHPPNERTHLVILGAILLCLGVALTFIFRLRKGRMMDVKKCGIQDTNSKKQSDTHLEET
In short: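 EC50 comes from non-linear regression of activation fold (compound reading over DMSO reading) against concentration. Read-out was luciferase signal 6 h after OKT-3-stimulated coculture of PD-1/NF-κB-luc Jurkat cells with PD-L1-expressing Raji cells, 5*10^4 cells each per well.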

[4] = male, mouse, plasma, PO 30 mg/kg, original compound (ester) analyzed

Chain of interaction between PD-1 and PD-L1 (Q9NZQ7 19-238): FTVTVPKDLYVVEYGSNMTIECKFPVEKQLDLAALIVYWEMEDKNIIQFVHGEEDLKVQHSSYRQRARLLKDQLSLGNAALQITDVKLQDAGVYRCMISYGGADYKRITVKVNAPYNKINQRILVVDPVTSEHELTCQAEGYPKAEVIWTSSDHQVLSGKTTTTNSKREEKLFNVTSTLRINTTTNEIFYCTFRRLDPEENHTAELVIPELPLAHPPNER

Compound | IC50 [1] [nM] | EC50 [3] [nM] | other results
COC(=O)[C@@H]1CCCCN1Cc1cnc(C(=O)Nc2cccc(-c3cccc(NC(=O)c4cc(C)c(CN5CCCC[C@H]5C(=O)OC)cn4)c3C)c2C)cc1C [Example 26, dimethyl 1,1′-(((((2,2′-dimethyl-[1,1′-biphenyl]-3,3′-diyl)bis (azanediyl))bis(carbonyl))bis (4-methylpyridine-6,3-diyl))bis(methylene))(2S,2′S)-bis (piperidine-2-carboxylate)] | 65.3 |  | MRT [2, 4]: 7 h; Tmax [2, 4]: 6 h; half-life [2, 4]: 3.6 h; AUC(0-t) ([2]; male, mouse, plasma, PO 30 mg/kg, original compound (ester) analyzed, class symbol): > 2000 ng·h/mL; Cmax ([2]; male, mouse, plasma, PO 30 mg/kg, original compound (ester) analyzed, class symbol, read-out: Cmax): > 500 ng/mL; ester hydrolysis in the bodies of the mice after oral administration ([2]; oral administration): no product of ester hydrolysis was detected
CCOC(=O)[C@H](C)NCc1cnc(C(=O)Nc2cccc(-c3cccc(NC(=O)c4cc(C5CC5)c(CN[C@@H](C)C(=O)OCC)cn4)c3C)c2C)cc1C1CC1 [Example 123] | 22 | 2410 | 
Cc1c(NC(=O)c2cc(C3CC3)c(CN[C@@H](C)C(=O)O)cn2)cccc1-c1cccc(NC(=O)c2cc(C3CC3)c(CN[C@@H](C)C(=O)O)cn2)c1C [Example 124, (2S,2S)-2,2′-((((((2,2′-dimethyl-[1,-1′-biphenyl]-3,3′-diyl)bis(azanediyl))bis (carbonyl))bis(4-cyclopropylpyridine-6,3-diyl))bis(methylene))bis(azanediyl)) dipropionic acid] | 1.09 | 14.7 | 
CCOC(=O)[C@@H](NCc1cnc(C(=O)Nc2cccc(-c3cccc(NC(=O)c4cc(C5CC5)c(CN[C@H](C(=O)OCC)C(C)C)cn4)c3C)c2C)cc1C1CC1)C(C)C [Example 125, diethyl 2,2′-((((((2,2′-dimethyl-[1,1′-biphenyl]-3,3′-diyl)bis(azanediyl))bis(carbonyl))bis(4-cyclopropylpyridine-6,3-diyl))bis(methylene))bis(azanediyl)) (2S,2′S)-bis(3-methylbutanoate)] | > 2000 | > 10000 | 
Cc1c(NC(=O)c2cc(C3CC3)c(CN[C@H](C(=O)O)C(C)C)cn2)cccc1-c1cccc(NC(=O)c2cc(C3CC3)c(CN[C@H](C(=O)O)C(C)C)cn2)c1C [Example 126, (2S,2S)-2,2-((((((2,2′-dimethyl-[1,1′-biphenyl]-3,3′-diyl)bis(azanediyl))bis (carbonyl))bis(4-cyclopropylpyridine-6,3-diyl))bis(methylene))bis(azanediyl)) bis(3-methylbutanoic acid)] | 1.11 | 64 | 
CCOC(=O)C1(NCc2cnc(C(=O)Nc3cccc(-c4cccc(NC(=O)c5cc(C6CC6)c(CNC6(C(=O)OCC)CC6)cn5)c4C)c3C)cc2C2CC2)CC1 [Example 127, diethyl 1,1′-((((((2,2′-dimethyl-[1,1′-biphenyl]-3,3′-diyl)bis(azanediyl))bis(carbonyl))bis(4-cyclopropylpyridine-6,3-diyl))bis(methylene))bis(azanediyl)) bis(cyclopropane-l-carboxylate)] | 113 | > 10000 | 
Cc1c(NC(=O)c2cc(C3CC3)c(CNC3(C(=O)O)CC3)cn2)cccc1-c1cccc(NC(=O)c2cc(C3CC3)c(CNC3(C(=O)O)CC3)cn2)c1C [Example 128, 1,1′-((((((2,2′-dimethyl-[1,1′-biphenyl]-3,3-diyl)bis(azanediyl))bis(carbonyl))bis (4-cyclopropylpyridine-6,3-diyl))bis (methylene))bis(azanediyl))bis (cyclopropane-1-carboxylic acid)] | 1.32 | 77.8 | 
CCOC(=O)CN(C)Cc1cnc(C(=O)Nc2cccc(-c3cccc(NC(=O)c4cc(C5CC5)c(CN(C)CC(=O)OCC)cn4)c3C)c2C)cc1C1CC1 [Example 129] | 102 | > 10000 | 
Cc1c(NC(=O)c2cc(C3CC3)c(CN(C)CC(=O)O)cn2)cccc1-c1cccc(NC(=O)c2cc(C3CC3)c(CN(C)CC(=O)O)cn2)c1C [Example 130, 2,2′-((((((2,2′-dimethyl-[1,1′-biphenyl]-3,3′-diyl)bis(azanediyl))bis (carbonyl))bis(4-cyclopropylpyridine-6,3-diyl))bis(methylene))bis (methylazanediyl))diacetic acid] | 0.99 | 600 | 
COC(=O)[C@@H]1CCN(Cc2cnc(C(=O)Nc3cccc(-c4cccc(NC(=O)c5cc(C6CC6)c(CN6CC[C@@H](C(=O)OC)C6)cn5)c4C)c3C)cc2C2CC2)C1 [Example 131, dimethyl 1,1′-(((((2,2′-dimethyl-[1,1′-biphenyl]-3,3′-diyl)bis(azanediyl))bis (carbonyl))bis(4-cyclopropylpyridine-6,3-diyl))bis(methylene))(3R,3′R)-bis (pyrrolidine-3-carboxylate)] | 21.8 | 2580 | 
Cc1c(NC(=O)c2cc(C3CC3)c(CN3CC[C@@H](C(=O)O)C3)cn2)cccc1-c1cccc(NC(=O)c2cc(C3CC3)c(CN3CC[C@@H](C(=O)O)C3)cn2)c1C [Example 132, (3R,3′R)-1,1′-(((((2,2′-dimethyl-[1,1′-biphenyl]-3,3′-diyl)bis(azanediyl))bis (carbonyl))bis(4-cyclopropylpyridine-6,3-diyl))bis(methylene))bis(pyrrolidine-3-carboxylic acid)] | 0.2 | 23.1 | 
COC(=O)[C@H]1CCN(Cc2cnc(C(=O)Nc3cccc(-c4cccc(NC(=O)c5cc(C6CC6)c(CN6CC[C@H](C(=O)OC)C6)cn5)c4C)c3C)cc2C2CC2)C1 [Example 133, dimethyl 1,1′-(((((2,2′-dimethyl-[1,1′-biphenyl]-3,3′-diyl)bis(azanediyl))bis (carbonyl))bis(4-cyclopropylpyridine-6,3-diyl))bis(methylene))(3S,3′S)-bis (pyrrolidine-3-carboxylate)] | 11.8 | 1900 | 
Cc1c(NC(=O)c2cc(C3CC3)c(CN3CC[C@H](C(=O)O)C3)cn2)cccc1-c1cccc(NC(=O)c2cc(C3CC3)c(CN3CC[C@H](C(=O)O)C3)cn2)c1C [Example 134, (3S,3′S)-1,1′-(((((2,2′-dimethyl-[1,1′-biphenyl]-3,3′-diyl)bis(azanediyl))bis (carbonyl))bis(4-cyclopropylpyridine-6,3-diyl))bis(methylene))bis(pyrrolidine-3-carboxylic acid)] | 0.82 | 21 | 
Cc1c(NC(=O)c2cc(C3CC3)c(CNC[C@@H](O)CC(=O)O)cn2)cccc1-c1cccc(NC(=O)c2cc(C3CC3)c(CNC[C@@H](O)CC(=O)O)cn2)c1C [Example 136, (3S,3′S)-4,4′-((((((2,2′-dimethyl-[1,1′-biphenyl]-3,3′-diyl)bis(azanediyl))bis (carbonyl))bis(4-cyclopropylpyridine-6,3-diyl))bis(methylene))bis(azanediyl)) bis(3-hydroxybutanoic acid)] | 0.32 | 27.4 | 
Cc1c(NC(=O)c2cc(C3CC3)c(CNC[C@@H]3CCC(=O)N3)cn2)cccc1-c1cccc(NC(=O)c2cc(C3CC3)c(CNC[C@@H]3CCC(=O)N3)cn2)c1C [Example 137, N,N′-(2,2′-dimethyl-[1,1′-biplienyl]-3,3′-diyl)bis(4-cyclopropyl-5-(((((S)-5-oxopyrrolidin-2-yl)methyl)amino)methyl)picolinamide)] | 2.07 | 108 | 
Cc1c(NC(=O)c2cc(C3CC3)c(CNCCF)cn2)cccc1-c1cccc(NC(=O)c2cc(C3CC3)c(CNCCF)cn2)c1C [Example 138, N,N′-(2,2′-dimethyl-[1,1′-biphenyl]-3,3′-diyl)bis(4-cyclopropyl-5-(((2-fluoroethyl)amino)methyl)picolinamide)] | 5.03 | 581 | 
Cc1c(NC(=O)c2cc(C3CC3)c(CNCC(F)F)cn2)cccc1-c1cccc(NC(=O)c2cc(C3CC3)c(CNCC(F)F)cn2)c1C [Example 139, N,N′-(2,2′-dimethyl-[1,1′-biphenyl]-3,3′-diyl)bis(4-cyclopropyl-5-(((2,2-difluoroethyl)amino)methyl)picolinamide)] | 120 | > 10000 | 
Cc1c(NC(=O)c2cc(C3CC3)c(CNCC(F)(F)F)cn2)cccc1-c1cccc(NC(=O)c2cc(C3CC3)c(CNCC(F)(F)F)cn2)c1C [Example 140, N,N′-(2,2′-dimethyl-[1,1′-biphenyl]-3,3′-diyl)bis(4-cyclopropyl-5-(((2,2,2-trifluoroethyl)amino)methyl)picolinamide)] | 15.1 | 2710 | 
Cc1cc(C(=O)Nc2cccc(-c3ccccc3)c2C)ncc1CNCCO [Positive compound, reference compound] | 2.4 | > 10000 | 
